Measurements reported in patent EP0641858A1, “SERUM CALCIUM DEPRESSING FACTOR” (Chugai Seiyaku Kabushiki Kaisha, priority 1991, dated 1992).
Non-standard residues stand in square brackets, D forms with d. Residues, ends and D or L forms follow the SMILES beside them. *: point of attachment. Sta = CC(C)C[C@H](N)[C@@H](O)CC(=O)O; Isovaleryl = CC(C)CC(=O)*

Legend:
[1] = target: T1, serum calcium decreasing factor of pig origin (from porcine pancreas), N-terminal sequence SEQ ID NO: 1 (Sus scrofa, UniProt F1SUW2, E34Q/S46R); assay: Effect of protease inhibitors on protease activity (azo-casein substrate, OD at 340 nm); type: biochemical
T1 sequence (F1SUW2 30-268 E34Q/S46R): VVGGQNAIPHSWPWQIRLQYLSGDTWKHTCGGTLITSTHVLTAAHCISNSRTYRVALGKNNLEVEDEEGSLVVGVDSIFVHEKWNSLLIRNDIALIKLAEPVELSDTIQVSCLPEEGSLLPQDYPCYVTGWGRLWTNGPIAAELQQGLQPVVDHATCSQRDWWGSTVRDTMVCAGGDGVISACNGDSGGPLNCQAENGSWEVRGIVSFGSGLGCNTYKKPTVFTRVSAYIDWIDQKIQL
Experimental: In steps of the purification, since it was observed that a fragment which was assumed to be a degraded fragment of the serum calcium decreasing factor protein, was generated, it is assumed that this serum calcium decreasing factor has proteolytic activity. An effect of various protease inhibitors against the serum calcium decreasing factor protein of this invention was tested as follows: 1 mg/ml azo-casein was used as a substrate, incubation was conducted at temperature of 37°C for 30 min in 0.25 ml, 1 ml of 5% trichloroacetic acid was added thereto, and then the supernatant from centrifugation of the reaction products was measured for OD at 340 nm. The resulting value was used as proteolytic activity. The effect of each protease inhibitor is shown based upon a percentage where proteolytic activity of a control sample without the inhibitor is 100%.
The protease inhibitors used include phenylmethansulfonyl fluoride (PMSF), which is a serin-protease inhibitor; (4-amidinophenyl)-methanesulfonyl fluoride (APMSF), which is a trypsin-type serin-protease inhibitor; leupetin, which is a trypsin-type serin-protease-thiolprotease inhibitor; chymostatin, which is a chymotrypsin-type serinprotease inhibitor; N-[N-3-trans-carboxyoxirane-2-carbonyl)-L-leucyl]agmatine (E-64), which is a thiolprotease inhibitor; pepstatin, which is an acid protease inhibitor; trypsin inhibitors which are inhibitors of trypsin, Xa-factor, plasmin and plasmakallikrein; and aprotinin, which is an inhibitor of trypsin and kallikrein.

[2] = Serum calcium lowering in mice, in vivo assay; settings: PMSF alone administered to mice (control of Fig. 5)
Experimental: Male BALB/c mice of 4 to 6 weeks old were starved for 18 hours and 0.1M Tris-HCl buffer (pH 7.5) or 0.1M Tris-HCl buffer containing each of the three peaks dissolved therein was administered through a mouse tail vein at a dose of 100 µl per 20g of the body weight. After 4 hours, blood was drawn from the heart under ether anesthesia and serum was obtained. The serum calcium concentration was measured according to the orth-cresol phthalein complexion method.
Next, lowering of serum calcium concentration by serum calcium decreasing factor in an in vivo assay on mice was tested using serum calcium decreasing factor treated with PMSF and non-treated serum calcium decreasing factor. In the figure, open circles show the result of non-treated serum calcium decreasing factor, closed circles show the result of serum calcium decreasing factor treated with PMSF, and closed boxes show the result (control) wherein PMSF alone was administrated in an amount provided when serum calcium decreasing factor was administrated in an amount shown on the absissa.

[3] = inhibitor 100 µM, 1 mg/ml azo-casein, 37°C, 30 min, control without inhibitor = 100%, read-out: Activity of Protease (per Activity of Control%)

In the case of `N=C(N)c1ccc(CS(=O)(=O)F)cc1` [APMSF, (4-amidinophenyl)-methanesulfonyl fluoride], the “inhibition of protease activity (in words)” value (“inhibition” below) ([1]; inhibitor 50 µM) is reported as “not being inhibited” and the “Activity of Protease (per Activity of Control%)” value ([1]; inhibitor 50 µM, 1 mg/ml azo-casein, 37°C, 30 min, control without inhibitor = 100%) is reported as 107.0%.

In the case of `CC(C)C[C@H](NC(=O)[C@@H](NC(=O)N[C@@H](Cc1ccccc1)C(=O)O)[C@@H]1CCN=C(N)N1)C(=O)N[C@H](C=O)Cc1ccccc1` [Chymostatin], the “inhibition” value ([1]; inhibitor 100 µM) is reported as “inhibited” and the remaining activity at 100 µM [1, 3] is reported as 16.1%.

With `CC(C)CC(NC(=O)C1OC1C(=O)O)C(=O)NCCCCN=C(N)N` [E-64, N-[N-3-trans-carboxyoxirane-2-carbonyl)-L-leucyl]agmatine] the “inhibition” value ([1]; inhibitor 2.5 µg/ml) was “not being inhibited” and the remaining activity at 2.5 µg/mL ([1]; inhibitor 2.5 µg/ml, 1 mg/ml azo-casein, 37°C, 30 min, control without inhibitor = 100%, read-out: Activity of Protease (per Activity of Control%)) was 108%.

In the case of `CC(=O)N[C@@H](CC(C)C)C(=O)N[C@@H](CC(C)C)C(=O)N[C@H](C=O)CCCNC(=N)N` [Leupeptin], the “inhibition” value ([1]; inhibitor 100 µM) is reported as “partially inhibited” and the remaining activity at 100 µM [1, 3] is reported as 86.8%.

For `O=S(=O)(F)Cc1ccccc1` [PMSF, phenylmethansulfonyl fluoride], the “inhibition” value ([1]; inhibitor 1 mM) was “inhibited”, the “Activity of Protease (per Activity of Control%)” value ([1]; inhibitor 1 mM, 1 mg/ml azo-casein, 37°C, 30 min, control without inhibitor = 100%) was 8.8% and the “lowering of serum calcium” value [2] was “did not lower serum calcium”.

With `CC(C)CC(=O)N[C@H](C(=O)N[C@H](C(=O)N[C@@H](CC(C)C)[C@@H](O)CC(=O)N[C@@H](C)C(=O)N[C@@H](CC(C)C)[C@@H](O)CC(=O)O)C(C)C)C(C)C` [Pepstatin] (Isovaleryl-VV[Sta]A[Sta]-OH) the “inhibition” value ([1]; inhibitor 100 µM) was “partially inhibited” and the remaining activity at 100 µM [1, 3] was 67.9%.
